From patent publication US10495630B2, “Methods for the determination of compounds or compositions for the treatment of lipofuscin related diseases and compounds or compositions” (KATAIRO GMBH, priority 2014, dated 2019)
Read-outs that look alike come from different tables or passages of the source. Values belong to the compound of their own block, whether it stands above or below them.

How the values were obtained:
[1] = Solubility remark on the test substance; format: physicochemical; conditions: compared with the other tetracycline test substances, 20 mg/ml solution or suspension
Abca4 (−/−) mice [2] = assay: A2E concentration in eyes of Abca4 (−/−) mice after intravitreal injection, HPLCMSMS; format: in vivo; conditions: for response vs control in vivo at 20000 µg/mL: Mus musculus, read-out: % of A2E relative to age matched untreated
From the text: […] […] The left eye was not treated and maintained as a control. Untreated eyes of age-matched mice lacking the Abca4 transporter were an additional control.
The concentration in each treated eye was then expressed as a percentage of the average concentration in all untreated eyes in the mice of the same age.
The left eye was not treated and maintained as a control. Untreated eyes of age-matched mice lacking the Abca4 transporter were an additional control.
The left eye was not treated and maintained as a control. Untreated eyes of age-matched mice lacking the Abca4 transporter were an additional control. […] Tryptophan is capable of absorbing and re-radiating light energy, as is riboflavin.
Water solutions were diluted 1:3 with acetonitrile and then sealed in vials for injection. 6 μL of the water acetonitrile solutions were injected onto a 2×50 mm Phenyl derived HPLC column (3 μm) and eluted with a gradient from 20% acetonitrile to 100% acetonitrile over 4 minutes at a flow rate of 500 μL/minute.

RPE cells = conditions: healthy monkeys, human RPE cells from aged donors, mouse model for Stargardt's Disease; EP 2080513 A1 and literature; cited from earlier work
[3] = In vitro (cell-free) degradation of A2E in aqueous solution, LCMS; format: biochemical; conditions: for A2E / A2E (% control): A2E 20 μM + verteporfin 25 μM; for A2E (% control): control = A2E non-illuminated
Experimental: The degradation of N-retinylidene-N-retinylethanolamine (A2E)—component of lipofuscin—in an aqueous solution water was measured in the presence of potential degradation mediators and light illumination.
In a cell-free assay, A2E was dissolved in deionized H2O in a concentration of 20 μM and the solution was divided into two parts. To one part of the A2E solution verteporfin was added in an amount of 25 μM. […]
The amounts of A2E and its epoxides (A2E+O, A2E+2O) remaining were quantified by combined liquid chromatography and mass spectroscopy (LCMS) using the transitions indicated in Table 1.

melanin A2E particles = assay: Assay for binding to A2E melanin particles; design: species or system S. officinalis; conditions: FIG. 3A; 37° C., 4 h
Experimental: To study the binding of A2E to melanin, a suspension of 2 mg/ml natural melanin (S. officinalis) is prepared in PBS, pH 7.4. The melanin suspension is brought to 37° C. and sonicated for 15 min to form a uniform suspension. The melanin suspension (0.75 ml) is measured in aliquots into glass test tubes (12×75 mm) under continuous shaking to avoid sedimentation. The solution of A2E (0.75 ml) is added to the above-mentioned melanin aliquots, and the tubes will be incubated in a shaker incubator at 37° C. and 300 rpm for 4 h.
Controls are prepared by incubating A2E in the absence of melanin in incubation medium and by incubating melanin without A2E. Compounds are added to melanin suspension from stock solutions. After incubation, the suspensions are centrifuged at 13,000 rpm for 15 min at room temperature to remove the melanin granules. The supernatant is collected, diluted with acetonitrile and analyzed by an LC-MS/MS method to determine the concentration of […] in the supernatant. The kinetic parameters of binding study, i.e., maximal binding capacity (rmax) and the binding affinity (k) are determined for A2E according to the previously reported method (Cheruvu et al., 2008).
A high percentage of soraprazan and demethoxysoraprazan—about 46% and about 53%, respectively—are found bound to the melanin A2E particles.

[4] = tested on: human retinal pigment epithelium (RPE) cells; assay: Degradation of lipofuscin in human RPE cells (micrographs after one week); format: cell-based; conditions: test compound alone (SAD 50 μg/ml; cardioxane 10, 50 or 100 μM), one week incubation
Experimental: To explore the role of the reactive chemical species the human retinal pigment epithelium (RPE) cells were treated with the super oxide anion donor (SAD) soraprazan ((7R,8R,9R)-2,3-Dimethyl-8-hydroxy-7-ethoxy-9-phenyl-7,8,9,10-tetrahydro-imidazo-[1,2-h][1,7]-naphthyridin)—a member of the THPE family—either alone or in combination with a known radical oxygen scavenger, cardioxane.
After growing the hRPE-cells to confluence, the test compounds were added to seven cell cultures and the cells were incubated at 37° C. and 5% CO2. The SAD was added to the cell cultures in a concentration of 50 μg/ml either alone or in combination with cardioxane in a concentration of 10 μM, 50 μM or 100 μM. Additionally, three cell cultures were incubated only with cardioxane in a concentration of 10 μM, 50 μM or 100 μM. As control, one cell culture was grown without test compounds.
After one week of incubation micrographs of the differently incubated RPE cells were taken as shown in FIG. 2A to H. In the original images, lipofuscin in cells is visible as a yellow-gold-orange fluorescent structure, before a blue background. In the grey scale reproduction in FIG. 2 the yellow-gold-orange structure appear light grey (yellow) or dark grey (gold-orange) before a grey background. Areas of degradation of lipofuscin in the hRPE cells appears as bright blue to whitish structures which appear white in the in the grey scale reproduction and are circled in FIG. 2A.
The bright blue structures are only observed in the experimental set up with SAD alone (FIG. 2A).

Abca4 (−/−) mice [5] = assay: Verteporfin injection into the vitreous of Abca4 (−/−) mice, micrographs of semi-thin sections; format: in vivo; conditions: 2 μl intravitreal, 12 month old mice, four weeks after injection, normal daylight
Experimental: 2 μl of a Verteporfin solution were injected into the vitreous of eyes from Abca4 (−/−) mice (12 month old) which lack the Abca4 transporter in the disk membranes of photoreceptors. Four weeks after injection the eyes of the mice were enucleated, embedded into the epoxy resin Epon™ and cut into semi-thin sections. As a control eyes of age-matched untreated mice lacking the Abca4 transporter were prepared in the same way. […] The RPE cell layer is marked by arrows in the Figure. Comparing the micrographs of the semi-thin section of eyes of untreated (FIG. 5a) and treated (FIG. 5b) mice the cytoplasm of the RPE cells of untreated mice appears much denser due to the targeting of confluent lipofuscin components. […] In treated eyes predominately melanin granules remained in the cytoplasm of RPE cells.

[6] = tested on: ARPE-19, a human RPE cell line that lacks melanin and lipofuscin; assay: Cellular verteporfin uptake in ARPE-19 cells; format: in vitro ADME; conditions: for Verteporfin in the cells after incubation: medium with 278 nM Verteporfin
Experimental: (§1) For testing factors influencing the cellular uptake of verteporfin to two cell types used:
ARPE-19, a human RPE cell line that lacks melanin and lipofuscin
(§2) The cells were treated with 200 μl of a culture medium that contained 278 nM Verteporfin for the indicated time, the culture medium was discarded, the cells trypsinized, resuspended in 500 μl medium and counted.

[7] = tested on: HuRPE, RPE cells isolated from human donor eyes that contain melanin and lipofuscin; assay: Cellular verteporfin uptake in HuRPE cells; format: in vitro ADME; conditions: for Verteporfin in the cells after incubation: medium with 278 nM Verteporfin
Experimental: as §1
HuRPE, RPE cells isolated from human donor eyes that contain melanin and lipofuscin
as §2

[8] = tested on: patient with putative dry AMD; assay: Clinical use of the photosensitizer to treat AMD, blue light laser retinal fluorescence; format: in vivo; conditions: intravenous 6 mg/m^2 or ca 4 μg intravitreal; days 7, 14 and 28 versus pre-treatment
Experimental: A patient with putative dry AMD is examined and baseline retinal fluorescence is determined using the blue laser imaging device (Heidelberg engineering). The patient is subject to an intravenous dose of 6 mg/m^2 verteporf in by means of infusion of 30 ml over 10 minutes. An alternative to intravenous application is the direct intravitreal application of verteporf in. In this case, ca 4 μg of verteporfin is administered to an affected single eye. Fluorescence after 1, 2 and 4 weeks is compared with fluorescence at baseline. The eyes are treated alternately.
In the standard verteporfin treatment, fifteen minutes after the start of the infusion, a laser light at 689 nm delivered 50 J/cm^2 by application of an intensity of 600 mW/cm^2 over 83 seconds using a spot size with a diameter 1000 μm. […] After administration of verteporfin to a patient an exposure of the eyes of the patient to mild indoor light of about 500 lux. Alternatively, low filtering sunglasses can be used as a means to maintain an exposure of the eyes of the patient to 500 lux when outdoors. The exposure should be maintained for a period of at least 6 h per day.
Blue light laser retinal fluorescence is measured at days 7, 14 and 28 after treatment and compared with pre-treatment values. Specific reductions of retinal fluorescence>1-20% are on post-treatment examination. […]

[9] = redox active small molecules and chelator, intravitreal 2 μl of 20 mg/ml, 16 hours after injection
[10] = dyes and porphyrins, intravitreal 2 μl of 2 mg/mL, one week after injection

Solubility [1]: notably less soluble
Compound: CN(C)[C@@H]1C(O)=C(C(N)=O)C(=O)[C@@]2(O)C(O)=C3C(=O)c4c(O)ccc(Cl)c4[C@@H](O)[C@H]3C[C@@H]12 [Demeclocycline]
response vs control in vivo at 20000 µg/mL (Abca4 (−/−) mice [2]; 168 h, tetracycline antibiotics, intravitreal 2 μl of 20 mg/ml, one week after injection): 89%
Concentration A2E (μM) in the treated eye (Abca4 (−/−) mice [2]; tetracycline antibiotics, intravitreal 2 μl of 20 mg/ml, one week after injection): 37 µM

Degradation of the lipofuscin component A2E in cell free systems ([3]; cell free, in solution under illumination by visible light): degraded
Proportion of compound bound to the melanin A2E particles after incubation (melanin A2E particles): about 46%
Compound: COCCO[C@@H]1c2ccn3c(C)c(C)nc3c2N[C@H](c2ccccc2)[C@H]1O [Soraprazan, (7R,8R,9R)-2,3-Dimethyl-8-hydroxy-7-(2-methoxyethoxy)-9-phenyl-7,8,9,10-tetrahydro-imidazo[1,2-h] [1,7]naphthyridine]
response vs control in vivo at 20000 µg/mL (Abca4 (−/−) mice [2]; [9]): 61%
Concentration A2E (μM) in the treated eye (Abca4 (−/−) mice [2]; [9]): 31 µM
Removal of natural lipofuscin from RPE cells (RPE cells): remove natural lipofuscin from RPE cells
Degradation / removal of lipofuscin in hRPE cells [4]: removal of lipofuscin

Verteporfin in the cells after incubation ([6]; ARPE-19, 1 h): 159 nM
Verteporfin in the cells after incubation ([6]; ARPE-19, 18 h): 351 nM
Increase of verteporfin concentration in the cells after 18 h ([6]; ARPE-19, 18 h versus 1 h): about two-fold
Verteporfin in the cells after incubation ([7]; HuRPE, 1 h): 339 nM
Verteporfin in the cells after incubation ([7]; HuRPE, 18 h): 1206 nM
Increase of verteporfin concentration in the cells after 18 h ([7]; HuRPE, 18 h versus 1 h): about four-fold
Concentration of verteporfin in HuRPE compared to ARPE-19 ([7]; after 1 h of incubation): more than two-fold
Compound: verteporfin
Removal of lipofuscin from the cytoplasm of RPE cells (Abca4 (−/−) mice [5]): substantial amounts of lipofuscin and melanolipofuscin were removed from the cytoplasm of RPE cells
% of A2E relative to age matched untreated (Abca4 (−/−) mice [2]; [10]): 90%
Concentration A2E (μM) in the treated eye (Abca4 (−/−) mice [2]; [10]): 27 µM
A2E ([3]; 689 nm, 83 s): 14.338 µM
A2E (% control) ([3]; 689 nm, 83 s): 44 % control
A2E ([3]; non-illuminated, 5 min): 28.864 µM
A2E (% control) ([3]; non-illuminated, 5 min): 89 % control
A2E ([3]; white light, 5 min): 1.295 µM
A2E (% control) ([3]; white light, 5 min): 4 % control
Proportion of compound bound to the melanin A2E particles after incubation (melanin A2E particles): bind to the A2E melanin particles although to a lower percentage
Specific reductions of retinal fluorescence [8]: 1-20%
